US20250332183A1, “COMPOSITIONS AND METHODS FOR THE STIMULATION OF INTERMEDIATE MACROPHAGES AND TREATMENTS THEREWITH” (priority 2024, published 2025)
Entries after “also recorded” stand apart in the source; their conditions may differ.

Key:
hPBMCs [1] = experiment: Macrophage lineage in hPBMCs over 3, 7 and 10 days; format: cell-based, human; conditions: 100 μM
[2] = system: cord blood mononuclear cells (CBMCs); experiment: Cytokine profile in LPS-challenged CBMCs; format: cell-based, human; conditions: compound 100 μM + LPS 50 ng/mL vs LPS treated cells
Experimental: FIGS. 15A TO 15F show the AVR-48 cytokine profile in CBMCs. Cells treated with AVR-48 [100 μM], LPS [50 ng/mL] and AVR-48+LPS show a decrease (˜2-4-fold) in cytokine signal in (FIG. 15A) TNF-α, (FIG. 15B) IL-1β, (FIG. 15C) IL-10, (FIG. 15D) IL-12, (FIG. 15E) IL-6, and (FIG. 15F) IL-8, and indicates a reduced […] response as compared to LPS treated cells solo. N=3, One-way ANOVA was used for analysis.
(§1) CBMCs were treated with either AVR-123 [100 μM], LPS [50 ng/mL] or AVR-123+LPS for 24 h. […] (FIG. 23G) AVR-123 decreases phosphorylated NFkB alone and when combined with LPS in CBMCs via western blot analysis. N=3, One-way ANOVA.

[3] = efficacy dose 10 mg/kg intraperitoneal injection; read-out: Cmax in mouse pups' plasma; cited from earlier work
[4] = system: preterm lamb model of BPD; experiment: Neurobehavioral assessments (curiosity, socialization, learning and memory); format: in vivo
From the text: Neurobehavioral assessments. The inventors adapted tests for curiosity, using novel objects of different colors and shapes; socialization, using a nonreflective (dull) surface versus a reflective surface (mirror); and learning and memory, using a maze with a reward.^20 These tests were adapted from other studies that assessed the neurobehavior of sheep.^20-25 Assessments were made over 2 weeks.
Habituation (open-field for exploration; days 1 and 2) was used to familiarize the lambs with the test, rest rooms, and tender. Habituation was accomplished on days 1 and 2 by a 10-minute stay in the test room, a 30-minute rest period in the rest room, and another 10-minute stay in the test room. Habituation was repeated the next day.
Tests were (1) curiosity, using novel objects; (2) socialization, using a non-reflective surface and a reflective surface; and (3) learning and memory (using a maze with a milk bottle reward). The tests were done on sequential days over two weeks. Tests were trials of 10-min each, with a 30-min rest period between trials. Each 10-min trial was video recorded, using the Noldus System (model EthoVision XT 17 with the Physiology Integration Module; Noldus Information Technology Inc., Leesburg, VA). The test room had tape on the floor that divided the floor into 9 zones for identification of movement direction and speed, inactivity, etc., in video playback. A ceiling camera recorded each test session. The camera was connected to a dedicated computer with the Noldus software to document lamb activity and time. The novel objects test required four trials on day 3. Trials 1 and 2 used two objects (brown and blue bowls) affixed to the floor. For trial 3, before the lamb was returned to the test room, the brown bowl was replaced with a novelx object (pink pitcher). For trial 4, before the lamb was returned to the test room, a new object (yellow ball) was added with the blue bowl and pink pitcher (3 objects). Analysis was the number of times and the time spent investigating each object.
The socialization test required two trials each on days 4 and 5. Two metallic surfaces were attached to a wall, one with a non-reflective and the other with a reflective surface. Analysis was the number of times and the time spent investigating each surface.
The following week, the learning and memory test required two trials on day 6. A maze made of solid metal panels was set up in the test room. A tender was in one corner of the maze, holding a bottle of milk, the reward for completing the maze. Once the tender was in place, the lamb entered the test room. Analysis was the time to reach the milk bottle reward.

[5] = system: cord blood mononuclear cells (CBMCs); experiment: Macrophage lineage in CBMCs; format: cell-based, human; conditions: 100 μM and LPS 50 ng/mL, 72 h (3d), HLA-DRlow/CD163high
From the text: N=3, *P<0.05, Two-way ANOVA was used for statistical analysis.

CD163 scavenger receptor = molecular target: T1, CD163 scavenger receptor (Homo sapiens, UniProt Q86VB7); experiment: Binding of AVR-48 to CBMC monocytes and lymphocytes by flow cytometry
T1 construct: endogenous in cells; host or cells: human cord blood mononuclear cells (monocytes and lymphocytes)
T1 sequence (Q86VB7 42-1156): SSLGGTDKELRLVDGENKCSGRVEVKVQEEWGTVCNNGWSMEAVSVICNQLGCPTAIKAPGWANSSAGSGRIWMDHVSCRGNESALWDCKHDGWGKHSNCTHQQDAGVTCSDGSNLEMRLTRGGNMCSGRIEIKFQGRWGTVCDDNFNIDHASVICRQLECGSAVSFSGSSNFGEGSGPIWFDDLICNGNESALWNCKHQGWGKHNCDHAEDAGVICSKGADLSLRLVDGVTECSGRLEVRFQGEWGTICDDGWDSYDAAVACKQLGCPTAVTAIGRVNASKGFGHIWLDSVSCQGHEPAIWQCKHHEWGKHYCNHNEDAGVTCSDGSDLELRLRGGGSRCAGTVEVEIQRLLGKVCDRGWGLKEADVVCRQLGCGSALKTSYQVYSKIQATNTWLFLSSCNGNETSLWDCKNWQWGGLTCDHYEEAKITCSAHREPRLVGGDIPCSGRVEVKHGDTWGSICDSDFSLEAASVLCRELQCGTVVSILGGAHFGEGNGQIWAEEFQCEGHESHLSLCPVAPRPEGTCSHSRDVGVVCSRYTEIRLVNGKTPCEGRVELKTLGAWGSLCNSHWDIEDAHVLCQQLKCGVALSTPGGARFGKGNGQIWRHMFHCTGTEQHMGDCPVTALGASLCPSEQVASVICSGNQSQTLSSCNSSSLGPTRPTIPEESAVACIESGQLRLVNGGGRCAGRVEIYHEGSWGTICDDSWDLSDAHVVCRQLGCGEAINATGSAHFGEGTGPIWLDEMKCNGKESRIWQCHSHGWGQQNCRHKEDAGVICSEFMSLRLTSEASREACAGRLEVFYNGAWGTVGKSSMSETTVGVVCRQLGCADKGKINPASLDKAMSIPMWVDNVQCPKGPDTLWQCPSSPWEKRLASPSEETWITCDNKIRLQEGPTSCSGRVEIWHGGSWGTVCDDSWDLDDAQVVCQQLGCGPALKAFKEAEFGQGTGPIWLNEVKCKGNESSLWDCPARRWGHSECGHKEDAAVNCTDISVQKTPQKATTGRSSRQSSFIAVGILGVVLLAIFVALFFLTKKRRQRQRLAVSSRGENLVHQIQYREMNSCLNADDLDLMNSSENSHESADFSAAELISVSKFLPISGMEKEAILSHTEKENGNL
From the text: N=3 *p≤0.05, **p≤0.01, ***p≤0.001, **** p≤0.0001. Two-way ANOVA was used for statistical analysis.

TLR4 pathway = experiment: Western blot of TLR4 pathway proteins in hPBMC and CBMCs; format: cell-based, human; conditions: 100 μM, alone and with LPS 50 ng/mL
Experimental: FIGS. 14A to 14D show Western Blot analysis for quantification of TLR4 pathway proteins and densitometry of (FIGS. 14A-FIG. 14C) using adult hPBMC and (FIG. 14D) CBMCs. After treatment with AVR-48 [100 μM], LPS [50 ng/mL], and in combination indicates AVR-48 activates TLR4 pathway via increasing phospho-MyD88 and phospho-TTRAP, with no activation via TRAM, and inhibiting the phosphorylation of the NF-kB pathway.
as §1

hPBMCs [6] = experiment: hPBMCs treated 7 days with AVR-48, LPS, MPLA, Influenza-A peptides, flow cytometry; format: cell-based, human
[7] = system: cord blood mononuclear cells (CBMCs); experiment: LPS tolerance / pretreatment in CBMCs; format: cell-based, human
Experimental: Cells were dosed with AVR-48 [100 μM], LPS [50 ng/mL], and in combination show (FIG. 16A). […] N=3, One-way ANOVA was used for analysis. […] N=3, Two-way ANOVA.
N=3 *p<0.05, **p<0.01, ***p<0.001. One-way ANOVA and t tests.

[8] = 2 moC PNA (d90), FPT lambs vs FPT vehicle

**Q.** Which macrophage lineage (hPBMCs [1]; day 3 (IFN-γ high CD206 high)) does the source give for `CC(=O)NC1C(Oc2ccc([N+](=O)[O-])cc2)OC(CO)C(O)C1O` (stereo not drawn) [AVR-48] here?
**A.** highest % of intermediate macrophage

**Q.** What about the macrophage lineage (hPBMCs [1]; day 7 (IFN-γ low CD206 high)) of the same compound?
**A.** polarizing to M2 phenotype

**Q.** What about the macrophage lineage (hPBMCs [1]; day 10 (IFN-γ high CD206 low)) of the same compound?
**A.** finally to M1

**Q.** And the “decrease in IL-1β” value [2]?
**A.** 2-4 fold

**Q.** And the “decrease in IL-6” value [2]?
**A.** 2-4 fold

**Q.** And the “decrease in IL-8” value [2]?
**A.** 2-4 fold

**Q.** And the “decrease in IL-10” value [2]?
**A.** 2-4 fold

**Q.** And the “decrease in IL-12” value [2]?
**A.** 2-4 fold

**Q.** What about the “decrease in TNF-α” value [2] of the same compound?
**A.** 2-4 fold

**Q.** What about the Cmax [3] of the same compound?
**A.** 5.7 µM

**Q.** And the “curiosity and socialization outcomes (time at novel object, dull surface, mirror)” value ([4]; 1 moC PNA (day of life 60), among groups)?
**A.** No differences were detected

**Q.** What about the “time at novel object (curiosity test)” value ([4]; 2 moC PNA (d90), FPT lambs 3.0 mg/kg/dose vs FPT vehicle) of the same compound?
**A.** significantly less time; also recorded: significantly shorter

**Q.** And the “time at the dull surface (socialization test)” value [4, 8]?
**A.** less time (not significant); also recorded: significantly shorter

**Q.** And the “time at the mirror (reflective surface, socialization test)” value [4, 8]?
**A.** more time (not significant); also recorded: significantly longer

**Q.** What about the “time to navigate the maze to reach the milk bottle reward (learning and memory test)” value [4, 8] of the same compound?
**A.** significantly faster; also recorded: less (not significant)

**Q.** What about the macrophage lineage [5] of the same compound?
**A.** preference for intermediate macrophage lineage

**Q.** And the “binding to CD163 scavenger receptor” value (CD163 scavenger receptor)?
**A.** exhibits a binding affinity

**Q.** What about the “activation via TRAM” value (TLR4 pathway) of the same compound?
**A.** no activation

**Q.** What about the phospho-MyD88 (TLR4 pathway) of the same compound?
**A.** increasing

**Q.** What about the phospho-TTRAP (TLR4 pathway) of the same compound?
**A.** increasing

**Q.** And the “TEMRE effector T-cell production” value (hPBMCs [6]; compared to MPLA)?
**A.** stimulated more

**Q.** And the “CD8+ IFN-g+ T-memory and helper cell recruitment” value (hPBMCs [6]; in the presence of influenza-A peptide)?
**A.** perturbated

**Q.** What about the “CD4+ T-cells production” value (hPBMCs [6]; vs MPLA) of the same compound?
**A.** outperformed MPLA

**Q.** And the “CD27− T-cells production” value (hPBMCs [6]; vs MPLA)?
**A.** outperformed MPLA

**Q.** What about the IL-1β profile ([7]; CBMC pre-treated with compound 100 μM for 48 h followed by LPS 50 ng/mL) of the same compound?
**A.** inhibited IL-1β profile

**Q.** And the “TNF-α in LPS-tolerant CBMCs” value ([7]; low dose LPS 48 h then second (high dose) LPS, with addition of compound)?
**A.** increased production of TNF-α

**Q.** And the TNF-α level ([7]; pretreatment 48 h followed by LPS 24 h, vs control)?
**A.** significant higher level
